# From patent US8039635B2, “N-hydroxy-4-{5-[4-(5-isopropyl-2-methyl-1,3-thiazol-4-yl) phenoxy]pentoxy} benzamidine 2 ethansulfonic acid salt, process for the preparation thereof and pharmaceutical composition comprising the same” (Dong Wha Pharmaceutical Co., Ltd., priority 2007, dated 2011)
# Structures can show the parent of a compound that is named as a salt.
# Assays:
# [1] = Evaluation of stability under accelerated conditions, HPLC content; format: physicochemical; settings: for change in content (stability in words): 60°C, 2 weeks; for Content: 60°C±2/75% RH±5, cap-opened vial
# Description: The N-hydroxy-4-{5-[4-(5-isopropyl-2-methyl-1,3-thiazol-4-yl)phenoxy]pentoxy}benzamidine 2 ethansulfonic acid salt prepared in Example 1 was placed into a transparent glass vial, and stored at a cap-opened state under accelerated conditions (60° C.±2/75% RH±5) for a period of two weeks. Thereafter, the sample was analyzed by HPLC (Waters Module 1). The analysis was performed using a column packed with an octadecyl-silylated silica gel (Shiseido CAPCELL PAK C18, UG 120, Particle size 5 μm) under conditions: UV detection: 256 nm, injection volume: 10 μl, mobile-phase flow rate: 1.5 mL/min. The amount of the compound was calculated as an area percentage.
# [2] = Pharmacokinetic evaluation (bioavailability) in SD rats; format: in vivo; settings: 50 mg/kg
# Description: The N-hydroxy-4-{5-[4-(5-isopropyl-2-methyl-1,3-thiazol-4-yl)phenoxy]pentoxy}benzamidine 2 ethansulfonic acid salt prepared in Example 1, and the N-hydroxy-4-{5-[4-(5-isopropyl-2-methyl-1,3-thiazol-4-yl)phenoxy]pentoxy}benzamidine 2 methansulfonic acid salt prepared in Comparative Example 2 were individually administered to SD rats in a dosage of 50 mg/kg. At given time points (0, 0.5, 1, 1.5, 2, 3, 5 and 8 hrs), rats were mildly anesthetized with diethyl ether, and blood samples were collected from the orbital venous plexus and stored at −20° C. until concentration analysis. The plasma samples were mixed with an equal volume of an internal standard substance solution (prepared by dissolving betamethasone in acetonitrile to give a final concentration of 30 μg/ml) with agitation for 1 min, and was centrifuged at 12,000 rpm for 10 min. Active components of the plasma samples were analyzed by HPLC (Model: Waters Module 1). From the obtained data, pharmacokinetic parameters [maximum blood concentration (Cmax) and area under the blood concentration-time curve (AUC)] were calculated by noncompartment analysis using the WinNonlin program (Version 1.0, Scientific Consulting Inc., USA).
# [3] = Evaluation of release rate in buffer solution (pH 1.2), paddle 50 rpm; format: physicochemical; settings: for release rate: buffer pH 1.2, paddle 50 rpm
# Source text: (§1) The N-hydroxy-4-{5-[4-(5-isopropyl-2-methyl-1,3-thiazol-4-yl)phenoxy]pentoxy}benzamidine 2 ethansulfonic acid salt prepared in Example 1, the N-hydroxy-4-{5-[4-(5-isopropyl-2-methyl-1,3-thiazol-4-yl)phenoxy]pentoxy}benzamidine prepared in Comparative Example 1, and the N-hydroxy-4-{5-[4-(5-isopropyl-2-methyl-1,3-thiazol-4-yl)phenoxy]pentoxy}benzamidine 2 methansulfonic acid salt prepared in Comparative Example 2 were examined for release rate (%) in a buffer solution (pH 1.2) at a paddle rotation speed of 50 rpm.
# [4] = Evaluation of solubility in solvents at room temperature; format: physicochemical
# Source text: as §1, with “solubility (μg/ml)” for “release rate (%)”, “various solvents” for “a buffer solution (pH 1.2)”, “room temperature.” for “a paddle rotation speed of 50 rpm.”
# ovalbumin-induced asthma = settings: asthmatic mice, cited from earlier work
# callus / bone fractures = settings: rats, vs untreated control; cited from earlier work
# [5] = dose-dependent, vs control group
structure (smiles),measurement,setting,value
"Cc1nc(-c2ccc(OCCCCCOc3ccc(C(=N)NO)cc3)cc2)c(C(C)C)s1 [2 Ethansulfonic acid salt, N-hydroxy-4-{5-[4-(5-isopropyl-2-methyl-1,3-thiazol-4-yl)phenoxy]pentoxy}benzamidine 2 ethansulfonic acid salt]",change in content (stability in words),[1],no change in content
same,change in content (stability in words),[1]; listed as 2 ethanesulfonic acid salt,no change in its content
same,Content,[1]; after 1 week,99.88%
same,Content,[1]; after 2 weeks,99.86%
same,Content,[1]; early stage,100.00%
same,AUC,"[2]; SD, rat, in vivo",10800 ± 833 ng·h/mL
same,"AUC, fold higher than 2 methanesulfonic acid salt","[2]; SD, rat, in vivo",about 1.2 fold
same,Cmax,"[2]; SD, rat, in vivo",2360 ± 183 ng/mL
same,"Cmax, fold higher than 2 methanesulfonic acid salt","[2]; SD, rat, in vivo",1.3 fold
same,Tmax,"[2]; SD, rat, in vivo",2.13 ± 0.63 h
same,"Tmax, fold faster than 2 methanesulfonic acid salt","[2]; SD, rat, in vivo",1.4 fold
same,release rate,[3]; 5 min,14.8%
same,release rate,[3]; 10 min,20.5%
same,release rate,[3]; 15 min,24.2%
same,release rate,[3]; 30 min,31.3%
same,"release rate, fold higher than 2 methanesulfonic acid salt",[3]; after 5 min,about 2.8 fold
same,"release rate, fold higher than 2 methanesulfonic acid salt",[3]; after 10 min,about 1.4 fold
same,"release rate, fold higher than 2 methanesulfonic acid salt",[3]; after 15 min,about 1.2 fold
same,solubility,[4]; water,4420 µg/mL
"CS(=O)(=O)O.CS(=O)(=O)O.Cc1nc(-c2ccc(OCCCCCOc3ccc(C(=N)NO)cc3)cc2)c(C(C)C)s1 [2 Methansulfonic acid salt, N-hydroxy-4-{5-[4-(5-isopropyl-2-methyl-1,3-thiazol-4-yl)phenoxy]pentoxy}benzamidine 2 methansulfonic acid salt]",AUC (area under the blood concentration-time curve),[2]; SD rats,8970 ± 3090 ng·h/mL
same,Cmax (maximum blood concentration),[2]; SD rats,1792 ± 912 ng/mL
same,Tmax (time to reach maximum plasma concentration),[2]; SD rats,3.00 ± 1.63 h
same,release rate,[3]; 5 min,5.3%
same,release rate,[3]; 10 min,13.9%
same,release rate,[3]; 15 min,20.1%
same,release rate,[3]; 30 min,34.3%
same,solubility,"[4]; distilled water, room temperature","3,535 μg/ml"
"Cc1nc(-c2ccc(OCCCCCOc3ccc(C(=N)NO)cc3)cc2)c(C(C)C)s1 [free base, N-hydroxy-4-{5-[4-(5-isopropyl-2-methyl-1,3-thiazol-4-yl)phenoxy]pentoxy}benzamidine]",number of eosinophils in bronchoalveolar lavage fluid,ovalbumin-induced asthma; [5],significantly decreased
same,total number of leukocytes and number of eosinophils (peripheral blood),ovalbumin-induced asthma; [5],significantly decreased
same,increase in lung weight,"ovalbumin-induced asthma; oral, 18 days, vs control given sterile distilled water",suppressed the increase in lung weight
same,alveolar area,ovalbumin-induced asthma; vs control group,significantly increased
same,release rate,[3]; 5 min,1.2%
same,release rate,[3]; 10 min,3.5%
same,release rate,[3]; 15 min,7.9%
same,release rate,[3]; 30 min,21.3%
same,bone mineral content and mechanical strength of callus,callus / bone fractures,significantly enhanced
same,bone tissue density,callus / bone fractures,significantly increased
same,callus volume,callus / bone fractures,significantly reduced
same,content of connective and soft tissues in the callus tissue,callus / bone fractures,significantly reduced
